Here are results for 20 compounds from patent US20260070922A1, “PYRAZOLE AND IMIDAZOLE DERIVATIVES AS DUAL OREXIN AND KAPPA-OPIOID RECEPTORS MODULATORS COMPOSITION, METHODS FOR TREATING NEUROLOGICAL AND PSYCHIATRIC DISORDERS” (HAGER BIOSCIENCES, LLC, priority 2022, published 2026).

Experiment [1] addresses T1, Orexin type 1 (OX1R) receptor (Homo sapiens, UniProt O43613).
T1 construct: expressed in transfected cells; host or cells: CHO cells (G418 selection)
T1 sequence (O43613 1-425): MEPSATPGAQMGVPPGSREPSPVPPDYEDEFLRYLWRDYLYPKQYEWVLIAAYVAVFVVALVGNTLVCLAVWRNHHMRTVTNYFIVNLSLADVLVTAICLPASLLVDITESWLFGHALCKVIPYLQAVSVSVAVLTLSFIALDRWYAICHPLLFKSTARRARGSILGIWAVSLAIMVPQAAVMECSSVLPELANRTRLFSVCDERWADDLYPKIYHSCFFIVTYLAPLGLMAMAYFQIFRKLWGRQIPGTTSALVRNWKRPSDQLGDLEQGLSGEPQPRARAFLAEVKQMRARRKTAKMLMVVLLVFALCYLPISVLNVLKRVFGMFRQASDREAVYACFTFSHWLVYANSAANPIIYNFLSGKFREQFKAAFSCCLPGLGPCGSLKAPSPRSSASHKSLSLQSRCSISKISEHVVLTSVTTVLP
Description: In vitro orexin antagonism assay: intracellular calcium measurement (FLIPR), orexin-A 3 nM as agonist. It is filed as cell-based. Conditions: for IC50: first value of IC50/Kb cell; for inhibition at 1 µM: read-out: OX1R, % Inh. @ 1 uM; for Kb: second value of IC50/Kb cell. Put shortly:
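CHO cells expressing the human orexin receptor were loaded with 3 μM fluo-4 AM plus 5 mM probenecid, then exposed to antagonist for 120 min before 3 nM orexin-A (final) was added on a FLIPR.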
For orientation: A change in cytosolic calcium serves as a functional read-out for many receptors and channels.

Experiment [2] addresses T2, human orexin-2 receptor (OX2R) (Homo sapiens, UniProt O43614).
T2 construct: expressed in transfected cells; host or cells: CHO cells (G418 selection)
T2 sequence (O43614 1-444): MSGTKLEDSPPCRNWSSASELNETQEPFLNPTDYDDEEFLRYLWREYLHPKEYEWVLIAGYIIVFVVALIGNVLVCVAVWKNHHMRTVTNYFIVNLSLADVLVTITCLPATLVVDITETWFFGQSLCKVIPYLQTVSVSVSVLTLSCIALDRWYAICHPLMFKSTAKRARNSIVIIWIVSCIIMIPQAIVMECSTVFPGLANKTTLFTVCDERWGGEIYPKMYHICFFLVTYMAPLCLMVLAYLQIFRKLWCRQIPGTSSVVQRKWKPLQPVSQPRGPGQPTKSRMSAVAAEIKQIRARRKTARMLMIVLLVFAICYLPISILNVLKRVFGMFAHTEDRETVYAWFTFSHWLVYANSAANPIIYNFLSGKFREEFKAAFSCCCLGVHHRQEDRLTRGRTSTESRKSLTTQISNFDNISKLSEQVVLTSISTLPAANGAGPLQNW
Described as above. Type of experiment: cell-based. Conditions: for inhibition at 1 µM: read-out: OX2R, % Inh. @ 1 uM; for IC50: first value of IC50/Kb cell; for Kb: second value of IC50/Kb cell. A digest of the protocol:
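CHO cells stably expressing human OX1R or OX2R, loaded with fluo-4 AM (3 μM, 5 mM probenecid) for 50 min at 37 °C, then 30 min at RT. Antagonist preincubated 120 min before 3 nM orexin-A; FLIPR fluorescence peak height vs vehicle gives IC50, possibly normalized to on-plate reference; geometric mean of repeats.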

Experiment [3] addresses T3, human k-opioid receptor (kOR) (Homo sapiens, UniProt P41145).
T3 construct: expressed in transfected cells; host or cells: RBL cells (membrane homogenates)
Description: Human k-opioid (KOP) receptor (agonist radioligand [3H]U-69593) binding assay, transfected RBL cell membranes. Conditions: for inhibition at 1 µM: read-out: KOR % Inh. @ 1 uM. On the procedure: Human k-Opioid (KOP) Receptor (Agonist Radioligand) Binding Assay
Purpose: Evaluation of the affinity of compounds for the human k-opioid receptor in transfected RBL cells determined in a radioligand binding assay.
Experimental protocol: Cell membrane homogenates (about 80 μg protein) are incubated for 60 min at 22° C. with 0.5 nM [3H]U-69593 in the absence or presence of the test compound in a buffer containing 50 mM Tris-HCl (pH 7.4), 10 mM MgCl2 and 1 mM EDTA. Nonspecific binding is determined in the presence of 10 μM naloxone. Following incubation, the samples are filtered rapidly under vacuum through glass fiber filters ([…], Packard) presoaked with 0.3% PEI and rinsed several times with ice-cold 50 mM Tris-HCl using a 96-sample cell harvester (Unifilter, Packard). The filters are dried then counted for radioactivity in a scintillation counter (Topcount, Packard) using a scintillation cocktail (Microscint 0, Packard). The results are expressed as a percent inhibition of the control radioligand specific binding. The standard reference compound is U-50488, which is tested in each experiment at several concentrations to obtain a competition curve from which its IC50 is calculated.

T3 sequence (P41145 whole entry): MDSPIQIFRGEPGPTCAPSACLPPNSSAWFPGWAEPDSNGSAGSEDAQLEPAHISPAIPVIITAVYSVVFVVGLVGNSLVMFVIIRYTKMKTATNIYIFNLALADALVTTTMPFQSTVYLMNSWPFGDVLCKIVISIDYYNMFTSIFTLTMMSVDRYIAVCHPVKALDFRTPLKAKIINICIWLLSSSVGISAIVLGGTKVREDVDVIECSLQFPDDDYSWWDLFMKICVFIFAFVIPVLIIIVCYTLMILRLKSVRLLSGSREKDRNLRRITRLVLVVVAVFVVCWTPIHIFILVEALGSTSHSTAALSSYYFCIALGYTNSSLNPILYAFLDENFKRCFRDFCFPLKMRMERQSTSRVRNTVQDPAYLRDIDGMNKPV

The term IC50 denotes the concentration at which inhibition is half-maximal. A word on the Kb: it is the affinity of an antagonist, worked out from how it opposes an agonist. Regarding `O=C(c1c(-c2ccccc2)nn2c1COCC2)N1[C@@H]2CC[C@@H](C2)[C@H]1COc1ccc(C(F)(F)F)cn1` [Example 87], in experiment [1], the IC50 came to 230 nM, the inhibition at 1 µM worked out at 78% and the Kb stood at 49 nM. In addition, in experiment [2], the inhibition at 1 µM came out at 23%. Also, the inhibition at 1 µM in experiment [3] stood at 3%.
Regarding `O=C(c1c(-c2ccccc2)nn2ccccc12)N1[C@@H]2CC[C@@H](C2)[C@H]1COc1ccc(C(F)(F)F)cn1` [Example 88], in experiment [1], the IC50 was 37 nM, the inhibition at 1 µM worked out at 97% and the Kb came out at 8 nM. Also, in experiment [2], the IC50 came to 360 nM, the inhibition at 1 µM is 66% and the Kb was found to be 63 nM. Moreover, the inhibition at 1 µM in experiment [3] stood at 22%.
For `O=C(c1c(-c2ccccc2)nc2ccccn12)N1[C@@H]2CC[C@@H](C2)[C@H]1COc1ccc(C(F)(F)F)cn1` [Example 89], in experiment [1], the IC50 was determined as 80 nM, the inhibition at 1 µM amounted to 98% and the Kb is 2 nM. Besides, the inhibition at 1 µM in experiment [2] stood at 46%. The inhibition at 1 µM in experiment [3] amounted to 11%.
With `O=C(c1c(-c2ccccc2F)nn2ccccc12)N1CCC[C@H]1Cn1ccc(-c2ccc(F)cn2)n1` [Example 90], the “OX1R, % Inh. @ 1 uM” value in experiment [1] (@ 1 uM) is reported as 99%. Also, in experiment [1], the IC50 is 6 nM and the Kb worked out at 1 nM. Moreover, the “OX2R, % Inh. @ 1 uM” value in experiment [2] (@ 1 uM) amounted to 84%. Further, in experiment [2], the IC50 is 15 nM and the Kb came to 3 nM. In addition, in experiment [3] (@ 1 uM), the “KOR % Inh. @ 1 uM” value was 33%.
On to `O=C(c1nn2ccccc2c1-c1ccccc1)N1CCC[C@H]1Cn1ccc(-c2ccc(F)cn2)n1` [Example 111], for which, in experiment [1], the IC50 is 14 nM, the inhibition at 1 µM was determined as 100% and the Kb amounted to 3 nM. For the same compound, in experiment [2], the IC50 worked out at 43 nM, the inhibition at 1 µM stood at 79% and the Kb came out at 8 nM. Also, the inhibition at 1 µM in experiment [3] worked out at 21%.
Take `O=C(c1nn2ccccc2c1-c1ccccc1)N1CC[C@H]1Cn1ccc(-c2ccc(F)cn2)n1` [Example 115]: the IC50 in experiment [1] worked out at 650 nM. Besides, the figures for the inhibition at 1 µM in experiment [1], in experiment [2] and in experiment [3] were 60%, 38% and 51%, respectively. For the same compound, the Kb in experiment [1] stood at 140 nM.
As to `O=C(c1nn2ccccc2c1-c1ccccc1)N1CCC[C@H]1Cc1nc(-c2ccc(F)cn2)no1` [Example 117], in experiment [1], the IC50 was 2 nM, the inhibition at 1 µM worked out at 100% and the Kb was found to be 0.3 nM. Besides, in experiment [2], the IC50 was found to be 150 nM, the inhibition at 1 µM is 69% and the Kb stood at 26 nM. In addition, the inhibition at 1 µM in experiment [3] was 19%.
As to `O=C(c1nc2ccccn2c1-c1ccccc1)N1CCC[C@H]1Cn1cc(-c2ccccn2)cn1` [Example 118], in experiment [1], the IC50 stood at 5 nM, the inhibition at 1 µM came out at 100% and the Kb was found to be 1 nM. In addition, the inhibition at 1 µM in experiment [2] is 45%. In experiment [3], the inhibition at 1 µM amounted to 35%.
For `O=C(c1nc2ccccn2c1-c1ccccc1)N1CCC[C@H]1Cn1ccc(-c2ccccn2)n1` [Example 119] the same measures were 5 nM, 100%, 1 nM, 37% and 6%.
Take `O=C(c1c(-c2ccccc2)nn2ccccc12)N1CCC[C@H]1Cc1nc(-c2ccc(F)cn2)no1` [Example 120]: the values for the IC50 in experiment [1] and in experiment [2] were 46 nM and 300 nM, respectively. Moreover, the values for the inhibition at 1 µM in experiment [1], in experiment [2] and in experiment [3] were 80%, 63% and 22%, respectively. Besides, the Kb came to 10 nM in experiment [1] and 52 nM in experiment [2].
`O=C(c1nc2ccccn2c1-c1ccccc1)N1CCC[C@H]1Cn1cc(-c2ccc(F)cn2)cn1` [Example 122]: in experiment [1], the IC50 was 10 nM, the inhibition at 1 µM was determined as 99% and the Kb turned out to be 2 nM. Besides, the inhibition at 1 µM in experiment [2] worked out at 51%. In addition, in experiment [3], the inhibition at 1 µM was 15%.
Consider `O=C(c1nc2ccccn2c1-c1ccccc1)N1[C@@H]2CC[C@@H](C2)[C@H]1COc1ccc(C(F)(F)F)cn1` [Example 125], for which, in experiment [1], the IC50 worked out at 190 nM, the inhibition at 1 µM was 93% and the antagonist dissociation constant (Kb) worked out at 41 nM. Also, in experiment [2], the IC50 was 20 nM, the inhibition at 1 µM amounted to 57% and the Kb stood at 3 nM. In experiment [3], the inhibition at 1 µM was 7%.
For the compound `O=C(c1nc2ccccn2c1-c1ccccc1)N1[C@H](Cn2ccc(-c3ccc(F)cn3)n2)C[C@@H]2C[C@@H]21` [Example 126], in experiment [1], the IC50 came out at 17 nM, the inhibition at 1 µM was found to be 99% and the Kb is 4 nM. The inhibition at 1 µM in experiment [2] stood at 24%. For the same compound, the inhibition at 1 µM in experiment [3] was 10%.
On to `O=C(c1nc2ccccn2c1-c1ccccc1)N1CCC[C@H]1Cc1nc(-c2ccc(F)cn2)no1` [Example 127], for which, in experiment [1], the IC50 is 5 nM, the inhibition at 1 µM came out at 100% and the Kb worked out at 1 nM. The inhibition at 1 µM in experiment [2] is 31%. In addition, the inhibition at 1 µM in experiment [3] is 17%.
For `O=C(c1nc2ccccn2c1-c1ccccc1)N1CCC[C@H]1Cc1nc(-c2ccccn2)no1` [Example 128] the same measures were 7 nM, 100%, 1 nM, 17% and 19%.
Take `O=C(c1nn2c(c1-c1ccccc1)COCC2)N1CCC[C@H]1Cn1ccc(-c2ccccc2)n1` [Example 129]: the IC50 in experiment [1] came to 6 nM; in experiment [2], 240 nM. The inhibition at 1 µM was 100% in experiment [1], 88% in experiment [2] and 7% in experiment [3]. In addition, the Kb in experiment [1] is 1 nM; in experiment [2], 41 nM.
As for `O=C(c1nn2c(c1-c1ccccc1)OCCC2)N1CCC[C@H]1Cn1ccc(-c2ccccc2)n1` [Example 130], the IC50 was 9 nM in experiment [1] and 110 nM in experiment [2]. In addition, the inhibition at 1 µM in experiment [1] is 100%; in experiment [2], 98%; in experiment [3], 53%. The Kb in experiment [1] stood at 2 nM; in experiment [2] it was 19 nM.
Take `O=C(c1c(-c2ncccn2)nn2ccccc12)N1CCC[C@H]1Cn1ccc(-c2ccccc2)n1` [Example 131]: the IC50 in experiment [1] came to 4 nM; in experiment [2] it was 68 nM. Moreover, the inhibition at 1 µM in experiment [1] was found to be 100%; in experiment [2], 91%; in experiment [3], 27%. Also, the values for the Kb in experiment [1] and in experiment [2] were 1 nM and 12 nM, respectively.
Take `O=C(c1c(-c2ccccn2)nn2ccccc12)N1CCC[C@H]1Cn1ccc(-c2ccccc2)n1` [Example 132]: in experiment [1], the IC50 was 4 nM, the inhibition at 1 µM was 100% and the Kb came out at 1 nM. In experiment [2], the IC50 was determined as 16 nM, the inhibition at 1 µM amounted to 98% and the Kb was determined as 3 nM. Moreover, the inhibition at 1 µM in experiment [3] came out at 35%.
As to `O=C(c1c(-c2ccccc2)nn2cccnc12)N1CCC[C@H]1Cn1ccc(-c2ccccc2)n1` [Example 133], in experiment [1], the IC50 was determined as 4 nM, the inhibition at 1 µM came out at 99% and the Kb turned out to be 1 nM. Also, in experiment [2], the IC50 is 83 nM, the inhibition at 1 µM was determined as 81% and the Kb was determined as 14 nM. Moreover, in experiment [3], the inhibition at 1 µM is 44%.
